Measured values from US9526785B2, “Pharmaceuticals for oral delivery” (Enteris BioPharma, Inc., priority 2013, dated 2016).
Several values for one entry are separate records, joined by “and”; a condition that tells them apart may be missing. Equal entries are not always repeated. Where two headings read alike, the source gives them in different places. Values belong to the compound of their own block, whether it stands above or below them.

Tests used:
[1] = Kanamycin and tobramycin plasma PK after IV bolus in dogs; format: in vivo, Beagle dogs
Description: (§1) Adult Beagle dogs weighing approximately 10 to 15 kg were used in the study. The animals were housed at Sinclair Research Center, Columbia, Mo. either individually or in pairs in over-sized dog runs. […] A 12-hour light/12-hour dark photoperiod was maintained. Room temperature was set to be maintained at 20±5° C. Relative humidity was monitored but not controlled. Animal room and pen cleaning were performed according to the testing facility (Sinclair) SOPs.
(§2) Animals were fasted overnight prior to drug administration and throughout the blood collection period.
(§3) Adult female Beagle dogs, weighing 9-15 kg were used in the oral and IV studies. Dogs were fasted overnight before the beginning of each study but were allowed free access to water. On the day of the study, one pre-dose blood sample of 3 mL was collected from each animal.
(§4) After administration of the drug, 3 mL blood samples were collected from the brachial vein at various time-points up to 240 minutes (4 hours) post-administration. Blood samples were collected into new heparinized monovette sampling syringes. The samples were placed on ice before being centrifuged for 10 minutes at approximately 2750 rpm at 2-8° C. Each tube was labeled with the dog ID # and time-point, and they were stored at −20° C. pending shipment.
Plasma samples were diluted appropriately with the kit assay buffer.
The maximum plasma concentration (Cmax) values and their times of occurrence (Tmax) were obtained directly from the plasma concentration vs. time profiles. The areas under the plasma concentration-time curves (AUClast) were estimated by the linear trapezoidal rule from time zero to the time of the last observed plasma concentration.

[2] = in vivo; details: female, beagle, dog, po
Description: as §1, §2, §3, §4
Plasma samples were diluted appropriately with the kit assay buffer. […]

[3] = female, beagle, dog, in vivo, iv, 0.1 mg

concentration at 0 min ([1]; female, Beagle, dog, plasma, iv, 0.1 mg, single IV bolus 0.10 mg, 0 min, read-out: Plasma Concentration, Mean): 0 µg/mL | concentration at 0 min ([1]; female, Beagle, dog, plasma, iv, 0.1 mg, single IV bolus 0.10 mg, 0 min, read-out: Plasma Concentration, individual dogs): 0 µg/mL | concentration at 5 min ([1]; female, Beagle, dog, plasma, iv, 0.1 mg, single IV bolus 0.10 mg, 5 min): 0.0408 µg/mL | concentration at 10 min ([1]; female, Beagle, dog, plasma, iv, 0.1 mg, single IV bolus 0.10 mg, 10 min): 0.0386 µg/mL | concentration at 15 min ([1]; female, Beagle, dog, plasma, iv, 0.1 mg, single IV bolus 0.10 mg, 15 min): 0.0403 µg/mL | concentration at 20 min ([1]; female, Beagle, dog, plasma, iv, 0.1 mg, single IV bolus 0.10 mg, 20 min): 0.0321 µg/mL | concentration at 30 min ([1]; female, Beagle, dog, plasma, iv, 0.1 mg, single IV bolus 0.10 mg, 30 min): 0.0346 µg/mL | concentration at 40 min ([1]; female, Beagle, dog, plasma, iv, 0.1 mg, single IV bolus 0.10 mg, 40 min, read-out: Plasma Concentration, Mean): 0.0272 µg/mL | concentration at 40 min ([1]; female, Beagle, dog, plasma, iv, 0.1 mg, single IV bolus 0.10 mg, 40 min, read-out: Plasma Concentration, individual dogs): 0.0299 µg/mL | concentration at 60 min ([1]; female, Beagle, dog, plasma, iv, 0.1 mg, single IV bolus 0.10 mg, 60 min, read-out: Plasma Concentration, Mean): 0.0256 µg/mL | concentration at 60 min ([1]; female, Beagle, dog, plasma, iv, 0.1 mg, single IV bolus 0.10 mg, 60 min, read-out: Plasma Concentration, individual dogs): 0.031 µg/mL | concentration at 90 min ([1]; female, Beagle, dog, plasma, iv, 0.1 mg, single IV bolus 0.10 mg, 90 min): 0.00924 µg/mL | concentration at 120 min ([1]; female, Beagle, dog, plasma, iv, 0.1 mg, single IV bolus 0.10 mg, 120 min): 0.01 µg/mL | concentration at 240 min ([1]; female, Beagle, dog, plasma, iv, 0.1 mg, single IV bolus 0.10 mg, 240 min): 0.00161 µg/mL | AUC ([1]; female, Beagle, dog, plasma, iv, 0.1 mg, single IV bolus 0.10 mg, read-out: AUC, Mean (converted)): 0.0542 µg·h/mL | AUC ([1]; female, Beagle, dog, plasma, iv, 0.1 mg, single IV bolus 0.10 mg, read-out: AUC, individual dogs (converted)): 0.0465 µg·h/mL | Cmax ([1]; female, Beagle, dog, plasma, iv, 0.1 mg, single IV bolus 0.10 mg, read-out: Cmax, Mean): 0.05 µg/mL | AUC, individual dogs ([1]; single IV bolus 0.10 mg): 3806 ng·min/mL and 3169 ng·min/mL | Cmax, Mean ([1]; single IV bolus 0.10 mg): 0.05021 µg/mL | Tmax, individual dogs ([1]; single IV bolus 0.10 mg): 15 min and 60 min | Plasma Concentration, individual dogs ([1]; single IV bolus 0.10 mg, 0 min): 0 ng/mL | Plasma Concentration, individual dogs ([1]; single IV bolus 0.10 mg, 10 min): 37.75 ng/mL and 7.52 ng/mL | Plasma Concentration, individual dogs ([1]; single IV bolus 0.10 mg, 15 min): 9.70 ng/mL | Plasma Concentration, individual dogs ([1]; single IV bolus 0.10 mg, 20 min): 39.87 ng/mL and 14.59 ng/mL | Plasma Concentration, individual dogs ([1]; single IV bolus 0.10 mg, 40 min): 34.08 ng/mL and 17.58 ng/mL | Plasma Concentration, individual dogs ([1]; single IV bolus 0.10 mg, 60 min): 27.79 ng/mL and 18.01 ng/mL | Plasma Concentration, individual dogs ([1]; single IV bolus 0.10 mg, 90 min): 0 ng/mL and 9.81 ng/mL and 17.91 ng/mL | Plasma Concentration, individual dogs ([1]; single IV bolus 0.10 mg, 120 min): 0 ng/mL and 13.36 ng/mL and 16.63 ng/mL | Plasma Concentration, individual dogs ([1]; single IV bolus 0.10 mg, 240 min): 0 ng/mL (2×) and 4.84 ng/mL
SMILES: NC[C@H]1O[C@H](O[C@H]2[C@H](O)[C@@H](O[C@H]3O[C@H](CO)[C@@H](O)[C@H](N)[C@H]3O)[C@H](N)C[C@@H]2N)[C@H](O)[C@@H](O)[C@@H]1O [Kanamycin]
Cmax, individual dogs ([1]; single IV bolus 0.10 mg): 0.07773 µg/mL and 0.05488 µg/mL and 0.01801 µg/mL | Plasma Concentration, individual dogs ([1]; single IV bolus 0.10 mg, 5 min): 77.73 ng/mL and 40.56 ng/mL and 3.97 ng/mL | Plasma Concentration, individual dogs ([1]; single IV bolus 0.10 mg, 30 min): 43.81 ng/mL and 42.52 ng/mL and 17.48 ng/mL

AUC ([1]; female, Beagle, dog, in vivo, iv, 0.1 mg, AUC, Mean): 0.0297 µg·h/mL | Cmax ([1]; female, Beagle, dog, in vivo, iv, 0.1 mg, Cmax, individual dogs): 0.0384 µg/mL | Tmax ([1]; female, Beagle, dog, in vivo, iv, 0.1 mg, individual dogs): 5 min | Cmax, Mean [1, 3]: 0.03122 µg/mL | Tmax, individual dogs [1, 3]: 5 min | Cmax ([1]; female, beagle, dog, in vivo, iv, 0.1 mg, Cmax, Mean): 0.031 µg/mL | Tmax ([1]; female, beagle, dog, in vivo, iv, 0.1 mg, Mean): 5 min | bioavailability [2]: 15%
SMILES: NC[C@H]1O[C@H](O[C@H]2[C@H](O)[C@@H](O[C@H]3O[C@H](CO)[C@@H](O)[C@H](N)[C@H]3O)[C@H](N)C[C@@H]2N)[C@H](N)C[C@@H]1O [Tobramycin]
